Reference: patent US20210147482A1, “PEPTIDE FOR INHIBITING BONE RESORPTION” (NIBEC CO., LTD., priority 2017, published 2021)

Experiments:
[1] = tested on: osteoclasts from mouse-derived bone marrow macrophages; assay: Podosome belt formation in osteoclasts (confocal microscopy); format: cell-based; conditions: 20 ng/ml M-CSF, 100 ng/ml RANKL, 20 μg/ml HBD3-C15, 5 days; FIG. 3
Protocol: Thus, in order to determine whether or not the reduction of osteoclast differentiation by HBD3-C15 is affected by podosome belt formation in osteoclasts, mouse-derived bone marrow macrophages were differentiated on a cover glass. Mouse-bone-marrow-derived macrophages were treated with 20 ng/ml of M-CSF and 100 ng/ml of RANKL, or 20 ng/ml of M-CSF, 100 ng/ml of RANKL and 20 μg/ml of HBD3-C15, and cultured for 5 days. The cells were fixed with 4% paraformaldehyde, stained with Alexa-Fluor-488-conjugated-phalloidin, and washed and stained with Hoechst 33258. The degree of staining of cells was observed by confocal microscopy.

c-Fos [2] = assay: c-Fos protein expression by immunoblotting; format: cell-based, mouse; conditions: treated with HBD3-C15 for 48 hours; FIG. 1D
Protocol: (§1) In addition, in order to determine changes of the protein expression of c-Fos and NFATc1, the proteins were extracted from mouse-bone-marrow-derived macrophages, treated with HBD3-C15 for 48 hours, and 40 μg of the protein was transferred to the PVDF membrane through an SDS-PAGE gel. Then, immunoblotting was performed using c-Fos and NFATc1-specific antibodies.

mouse skulls [3] = assay: Mouse skull resorption induced by A.a.LPS; format: in vivo; conditions: transplantation of HBD3-C15; FIG. 6
Protocol: In addition, lipopolysaccharide of Aggregatibacter actinomycetemcomitans (A.a.LPS), a bacterium known to cause aggressive periodontitis accompanied with rapid alveolar bone loss, induced resorption of mouse skulls, and whether such resorption can be inhibited by HBD3-C15 was determined

c-Fos [4] = assay: c-Fos RNA expression by RT-PCR; format: cell-based, mouse; conditions: 20 ng/ml M-CSF, 100 ng/ml RANKL, 20 μg/ml HBD3-C15, 24 hours; FIG. 1D
Protocol: (§2) In addition, expression of c-fos and NFATc1, which are well-known key transcription factors for osteoclast differentiation, was determined at protein and RNA levels.
(§3) Mouse-bone-marrow-derived macrophages were treated with 20 ng/ml of M-CSF and 100 ng/ml of RANKL, or 20 ng/ml of M-CSF, 100 ng/ml of RANKL and 20 μg/ml of HBD3-C15 for 24 hours, RNA was extracted, and the quantified RNA and random primers were reacted at 70° C. for 5 minutes and reacted in the presence of a reverse transcriptase, reverse transcription buffer and dNTPs at 42° C. for 1 hour. The result was amplified by 35 cycles using the synthesized cDNA as a template and using c-Fos and NFATc1-specific oligos as primers in a polymerase chain reaction machine.

[5] = tested on: osteoblast cell line MC3T3-E1 (Subclone 4); assay: Osteoblast differentiation by alkaline phosphate staining; format: cell-based; conditions: differentiation medium (50 μg/ml ascorbic acid, 10 mM β-glycerophosphate) + 20 μg/ml HBD3-C15, 6 days; FIG. 7
Protocol: In order to evaluate the effect of HBD3-C15 on differentiation of osteoblasts, which are bone formation cells, the osteoblast cell line MC3T3-E1 (Subclone 4) was used. The cells were prepared by culturing in alpha-MEM medium without ascorbic acid containing 10% fetal bovine serum, 50 unit/ml of penicillin, and 50 μg/ml of streptomycin at 37° C. and 100% humidity while continuously supplying 5% carbon dioxide.
MC3T3-E1 cells were seeded at a density of 25,000 cells/well into a 48-well plate, then treated with a differentiation medium alone supplemented with 50 μg/ml of ascorbic acid and 10 mM of β-glycerophosphate, or in combination with 20 μg/ml of HBD3-C15, and cultured for 6 days. Alkaline phosphate staining was performed to determine the differentiation of osteoblasts and images were obtained through a camera mounted on a microscope.

mouse skulls [6] = assay: Calvarial implantation model, bone resorption by RANKL; format: in vivo; conditions: 20 μg RANKL and 200 μg HBD3-C15 in collagen sheet, day 7
Protocol: In order to determine the inhibition of bone destruction by HBD3-C15 in vivo, a calvarial implantation model, a typical bone loss model, was used.
20 μg of RANKL, a key cytokine that can destroy bones, was soaked in a collagen sheet and was transplanted alone into mouse skulls, or 20 μg of RANKL and 200 μg of HBD3-C15 were soaked in a collagen sheet and then transplanted into mouse skulls. The mice were sacrificed on day 7 of transplantation, and the degree of skull bone destruction was analyzed by scanning via micro-CT.
After micro-CT analysis, TRAP staining was performed to determine the number of osteoclasts in the skull.

[7] = tested on: mouse-bone-marrow-derived macrophages; assay: Osteoclast differentiation by TRAP staining; format: cell-based; conditions: 100 ng/ml RANKL + 0.2, 2, or 20 μg/ml HBD3-C15, 3 days
Protocol: In order to evaluate the effect of HBD3-C15, a peptide fragment derived from human beta-defensin-3 (HBD3) on the differentiation of osteoclasts, which are bone destruction cells, mouse-bone-marrow-derived macrophages were used. The bone marrow-derived macrophages that were used were prepared by isolating bone marrow cells from the long bone of mice and culturing the same at 100% humidity and 37° C. in an alpha MEM containing 10% fetal bovine serum, 50 unit/ml of penicillin and 50 μg/ml of streptomycin along with 20 ng/ml of M-CSF for 5 days, while continuously feeding 5% carbon dioxide.
Mouse-bone-marrow-derived macrophages were seeded at 20,000 cells/well on a 96-well plate, treated with 100 ng/ml of receptor activator of nuclear factor-kappaB ligand (RANKL) alone, or a combination of 100 ng/ml of RANKL and 0.2, 2, or 20 μg/ml of HBD3-C15, and cultured for 3 days. In order to determine the degree of differentiation of osteoclasts, tartrate-resistant acid phosphatase (TRAP) staining was performed, and cells with three or more nuclei having osteoclast activity were counted and statistically analyzed.

mature osteoclasts = assay: Destruction of podosome belt of differentiated mature osteoclasts; format: cell-based, mouse; conditions: 20 μg/ml HBD3-C15 added on day 4 of differentiation, cultured 1 day; FIG. 4
Protocol: Thus, in order to determine whether or not HBD3-C15 can inhibit the activity of differentiated mature osteoclasts, mouse-bone-marrow-derived macrophages were treated with 20 ng/ml of M-CSF and 100 ng/ml of RANKL on a cover glass for 4 days to induce differentiation of osteoclasts. The osteoclasts were treated with 20 μg/ml of HBD3-C15 on day 4 of differentiation and cultured for 1 day. The cells were fixed with 4% paraformaldehyde, stained with Alexa-Fluor-488-conjugated phalloidin, washed and nuclei-stained with Hoechst 33258. The degree of staining of cells was observed by confocal microscopy.

NFATc1 [8] = assay: NFATc1 protein expression by immunoblotting; format: cell-based, mouse; conditions: treated with HBD3-C15 for 48 hours; FIG. 1D
Protocol: as §1

[9] = tested on: osteoclasts cultured from mouse-bone-marrow-derived macrophages on dentin discs; assay: Bone resorption activity of osteoclasts on dentin discs; format: cell-based; conditions: 20 ng/ml M-CSF, 100 ng/ml RANKL, 20 μg/ml HBD3-C15, 6 days, FIG. 2
Protocol: The osteoclasts were cultured in mouse-bone-marrow-derived macrophages on dentin discs based on the fact that osteoclasts perform all functions thereof in environments enabling bone absorption. Mouse-bone-marrow-derived macrophages were treated with 20 ng/ml of M-CSF and 100 ng/ml of RANKL, or with 20 ng/ml of M-CSF, 100 ng/ml of RANKL and 20 μg/ml of HBD3-C15, and then cultured for 6 days. The bone resorption area and bone resorption depth were imaged by confocal microscopy and total bone resorption depth and bone resorption area were measured by LSM Image Browser software.

NFATc1 [10] = assay: NFATc1 RNA expression by RT-PCR; format: cell-based, mouse; conditions: 20 ng/ml M-CSF, 100 ng/ml RANKL, 20 μg/ml HBD3-C15, 24 hours; FIG. 1D
Protocol: as §2, §3

For “G-K-C-S-T-R-G-R-K-C-C-R-R-K-K [HBD3-C15]”, the “podosome belt formation by RANKL” value [1] was “no clear podosome belt”, the “c-Fos protein expression attributable to RANKL” value (c-Fos [2]) was “inhibited an increase” and the “number of osteoclasts (A.a.LPS model)” value (mouse skulls [3]) was “decreased”. For the same substance, the “skull resorption by A.a.LPS” value (mouse skulls [3]) was “significantly reduced”, the “expression of c-Fos (RNA) increased by RANKL” value (c-Fos [4]) was “reduced” and the “degree of differentiation of osteoblasts” value [5] was “no difference in the degree of differentiation”. For the same substance, the “number of osteoclasts in the skull (TRAP staining)” value (mouse skulls [6]; FIG. 5C) was “significantly reduced”, the “skull absorbed by RANKL (micro-CT)” value (mouse skulls [6]; FIGS. 5A and 5B) was “significantly reduced” and the “number of TRAP positive cells increased due to RANKL” value ([7]; FIG. 1A) was “decreased in a concentration-dependent manner”. For the same substance, the “number of cells with three or more nuclei having osteoclast activity” value ([7]; FIG. 1B) was “statistically significantly decreased”, the “number of cells having ten or more nuclei” value ([7]; FIG. 1C) was “significantly decreased” and the “podosome belt of differentiated mature osteoclasts” value (mature osteoclasts) was “incomplete podosome belt”. The “NFATc1 protein expression attributable to RANKL” value (NFATc1 [8]) was “inhibited an increase”, the “increase in bone resorption area attributable to RANKL” value [9] was “significantly reduced” and the “increase in bone resorption depth attributable to RANKL” value [9] was “significantly reduced”. For the same substance, the “expression of NFATc1 (RNA) increased by RANKL” value (NFATc1 [10]) was “reduced”.
